Reference: PMC9005681, “Use of AD Informer Set compounds to explore validity of novel targets in Alzheimer's disease pathology” (Alzheimer's & Dementia : Translational Research & Clinical …, 2022)
Values joined by “and” are separate entries in the source; they are usually repeats but may differ in a detail not shown here. Identical values can stand only once.

Tests used:
Experiment in all cases: PDSP GPCR panel primary binding assays at 10 μM
[1] = biological target: T1, cloned human or rodent CNS receptors, channels, and transporters (PDSP panel) (Homo sapiens, UniProt P11229); details: M1, primary assay
T1 construct: expressed in transfected cells
T1 sequence (P11229 1-460): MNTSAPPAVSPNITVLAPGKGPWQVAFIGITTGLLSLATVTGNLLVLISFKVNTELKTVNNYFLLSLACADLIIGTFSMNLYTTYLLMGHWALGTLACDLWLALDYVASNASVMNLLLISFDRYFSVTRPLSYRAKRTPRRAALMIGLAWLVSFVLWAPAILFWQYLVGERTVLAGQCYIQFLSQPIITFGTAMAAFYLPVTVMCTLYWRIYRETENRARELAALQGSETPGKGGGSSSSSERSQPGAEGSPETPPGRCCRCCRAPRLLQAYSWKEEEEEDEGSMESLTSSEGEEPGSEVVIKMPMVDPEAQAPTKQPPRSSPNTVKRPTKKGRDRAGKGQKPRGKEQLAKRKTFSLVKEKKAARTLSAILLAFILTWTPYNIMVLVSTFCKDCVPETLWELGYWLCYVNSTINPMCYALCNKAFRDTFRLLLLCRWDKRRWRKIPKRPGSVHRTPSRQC
Method in brief: (§1)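 Primary screen: 10 μM, quadruplicate, displacement of radio-labeled standard ligand. Hit cut-off >50% mean displacement → secondary 11-point dose-response, triplicate. H3, PBR, GABAA excluded from follow-up.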

[2] = tested on: cloned human or rodent CNS receptors, channels, and transporters (PDSP panel); details: primary assay; for Mean %: mean inhibition; for Inhibition 1: replicate 1; for Inhibition 2: replicate 2; for Inhibition 3: replicate 3; for Inhibition 4: replicate 4
Method in brief: as §1

[3] = biological target: T2, cloned human or rodent CNS receptors, channels, and transporters (PDSP panel) (Homo sapiens, UniProt P14416); details: D2, primary assay
T2 construct: expressed in transfected cells
T2 sequence (P14416 whole entry): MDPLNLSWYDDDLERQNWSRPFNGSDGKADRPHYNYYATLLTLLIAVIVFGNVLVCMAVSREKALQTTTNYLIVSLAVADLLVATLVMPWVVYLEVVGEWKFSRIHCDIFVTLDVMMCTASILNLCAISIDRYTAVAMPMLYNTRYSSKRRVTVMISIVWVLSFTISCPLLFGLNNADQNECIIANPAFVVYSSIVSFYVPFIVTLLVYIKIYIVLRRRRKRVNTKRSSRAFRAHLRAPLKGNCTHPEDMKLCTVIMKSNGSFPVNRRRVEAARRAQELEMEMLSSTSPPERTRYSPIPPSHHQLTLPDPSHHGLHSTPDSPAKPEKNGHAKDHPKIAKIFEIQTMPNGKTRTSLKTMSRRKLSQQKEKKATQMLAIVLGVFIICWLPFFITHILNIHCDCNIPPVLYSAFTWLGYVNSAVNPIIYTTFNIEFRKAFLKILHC
Method in brief: as §1

[4] = biological target: T3, cloned human or rodent CNS receptors, channels, and transporters (PDSP panel) (Homo sapiens, UniProt Q01959); details: DAT, primary assay
T3 construct: expressed in transfected cells
T3 sequence (Q01959 whole entry): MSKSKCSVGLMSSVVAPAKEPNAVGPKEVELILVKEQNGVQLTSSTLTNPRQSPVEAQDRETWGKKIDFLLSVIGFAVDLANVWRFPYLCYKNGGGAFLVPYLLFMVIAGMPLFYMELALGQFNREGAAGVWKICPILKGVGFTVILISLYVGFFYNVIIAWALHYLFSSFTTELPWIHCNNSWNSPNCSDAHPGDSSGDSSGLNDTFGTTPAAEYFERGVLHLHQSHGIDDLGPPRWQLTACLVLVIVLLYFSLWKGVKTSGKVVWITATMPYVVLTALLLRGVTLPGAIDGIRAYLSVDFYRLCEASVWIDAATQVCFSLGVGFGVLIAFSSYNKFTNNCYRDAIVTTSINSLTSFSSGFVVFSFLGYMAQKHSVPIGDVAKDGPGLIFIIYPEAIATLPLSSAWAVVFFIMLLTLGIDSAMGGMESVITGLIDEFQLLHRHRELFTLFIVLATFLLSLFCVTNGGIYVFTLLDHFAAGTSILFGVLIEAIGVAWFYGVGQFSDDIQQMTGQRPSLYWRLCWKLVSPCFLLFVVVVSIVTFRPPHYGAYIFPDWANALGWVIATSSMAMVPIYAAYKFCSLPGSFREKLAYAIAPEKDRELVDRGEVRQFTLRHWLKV
Method in brief: as §1

[5] = biological target: T4, cloned human or rodent CNS receptors, channels, and transporters (PDSP panel) (Homo sapiens, UniProt P35462); details: D3, primary assay
T4 construct: expressed in transfected cells
T4 sequence (P35462 whole entry): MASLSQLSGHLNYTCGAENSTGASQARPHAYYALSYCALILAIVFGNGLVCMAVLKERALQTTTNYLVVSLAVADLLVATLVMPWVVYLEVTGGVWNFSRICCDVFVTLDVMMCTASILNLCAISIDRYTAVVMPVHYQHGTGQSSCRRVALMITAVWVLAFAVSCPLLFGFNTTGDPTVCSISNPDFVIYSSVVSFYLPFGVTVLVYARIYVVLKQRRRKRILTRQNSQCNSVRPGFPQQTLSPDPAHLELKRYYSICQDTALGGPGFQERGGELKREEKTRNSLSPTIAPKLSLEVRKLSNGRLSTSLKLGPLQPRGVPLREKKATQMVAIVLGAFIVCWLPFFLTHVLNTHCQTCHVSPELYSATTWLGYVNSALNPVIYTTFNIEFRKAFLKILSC
Method in brief: as §1

[6] = biological target: T5, cloned human or rodent CNS receptors, channels, and transporters (PDSP panel) (Homo sapiens, UniProt P28335); details: 5-HT2C, primary assay
T5 construct: expressed in transfected cells
T5 sequence (P28335 33-458): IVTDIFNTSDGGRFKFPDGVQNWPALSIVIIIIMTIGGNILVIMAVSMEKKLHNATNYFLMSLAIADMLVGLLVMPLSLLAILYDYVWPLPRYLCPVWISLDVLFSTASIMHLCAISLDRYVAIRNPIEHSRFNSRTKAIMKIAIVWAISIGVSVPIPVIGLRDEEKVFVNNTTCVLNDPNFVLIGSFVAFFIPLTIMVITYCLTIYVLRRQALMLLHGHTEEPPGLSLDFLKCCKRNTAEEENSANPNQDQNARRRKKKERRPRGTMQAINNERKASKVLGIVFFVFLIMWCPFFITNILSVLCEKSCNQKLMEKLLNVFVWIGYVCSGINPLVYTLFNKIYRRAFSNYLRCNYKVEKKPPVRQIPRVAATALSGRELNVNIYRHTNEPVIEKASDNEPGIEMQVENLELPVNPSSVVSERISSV
Method in brief: as §1

For `CCC(=O)N1CCC(NC(=O)Nc2ccc(OC(F)(F)F)cc2)CC1` [UNC10302681A, TPPU], the Mean % ([1]; mean inhibition) was -5.22%, the “Inhibition 1” value ([1]; replicate 1) was 4.61% and the “Inhibition 2” value ([1]; replicate 2) was -16.27%. For the same compound, the “Inhibition 3” value ([1]; replicate 3) was -3.29%, the “Inhibition 4” value ([1]; replicate 4) was -5.93% and the Mean % ([2]; Alpha1A) was -2.01%. For the same compound, the “Inhibition 1” value ([2]; Alpha1A) was 4.58%, the “Inhibition 2” value ([2]; Alpha1A) was -5.33% and the “Inhibition 3” value ([2]; Alpha1A) was -5.52%. The “Inhibition 4” value ([2]; Alpha1A) was -1.78%, the Mean % ([2]; Alpha2A) was -5.2% and the “Inhibition 1” value ([2]; Alpha2A) was -1.74%. For the same compound, the “Inhibition 2” value ([2]; Alpha2A) was -8.16%, the “Inhibition 3” value ([2]; Alpha2A) was -13.09% and the “Inhibition 4” value ([2]; Alpha2A) was 2.19%. The Mean % ([2]; Alpha2C) was -0.34%, the “Inhibition 1” value ([2]; Alpha2C) was 3.18% and the “Inhibition 2” value ([2]; Alpha2C) was -3.57%. For the same compound, the “Inhibition 3” value ([2]; Alpha2C) was 7.34%, the “Inhibition 4” value ([2]; Alpha2C) was -8.31% and the Mean % ([2]; BZP Rat Brain Site) was 9.51%. The “Inhibition 1” value ([2]; BZP Rat Brain Site) was 23.2%, the “Inhibition 2” value ([2]; BZP Rat Brain Site) was 7.09% and the “Inhibition 3” value ([2]; BZP Rat Brain Site) was 1.4%. For the same compound, the “Inhibition 4” value ([2]; BZP Rat Brain Site) was 6.33%, the Mean % ([2]; DOR) was -1.52% and the “Inhibition 1” value ([2]; DOR) was 6.89%. For the same compound, the “Inhibition 2” value ([2]; DOR) was -4.86%, the “Inhibition 3” value ([2]; DOR) was -4.68% and the “Inhibition 4” value ([2]; DOR) was -3.41%. For the same compound, the Mean % ([2]; GABAA) was -2.31% and -7.5%, the “Inhibition 1” value ([2]; GABAA) was 16.54% and 5.88% and the “Inhibition 2” value ([2]; GABAA) was -7.12% and -3.31%. For the same compound, the “Inhibition 3” value ([2]; GABAA) was -2.68% and -32.5%, the “Inhibition 4” value ([2]; GABAA) was -15.99% and -0.07% and the Mean % ([2]; H3) was 21.21%. For the same compound, the “Inhibition 1” value ([2]; H3) was 28.2%, the “Inhibition 2” value ([2]; H3) was 25.87% and the “Inhibition 3” value ([2]; H3) was 12.17%. For the same compound, the “Inhibition 4” value ([2]; H3) was 18.58%, the Mean % ([2]; H4) was -7.02% and the “Inhibition 1” value ([2]; H4) was -3.06%. The “Inhibition 2” value ([2]; H4) was -20.34%, the “Inhibition 3” value ([2]; H4) was -7.38% and the “Inhibition 4” value ([2]; H4) was 2.7%. The Mean % ([2]; Sigma 1) was 19.57%, the Mean % ([2]; Sigma 2) was 21.21% and the Mean % ([3]; mean inhibition) was -2.08%. The “Inhibition 1” value ([3]; replicate 1) was 8.4%, the “Inhibition 2” value ([3]; replicate 2) was -12.22% and the “Inhibition 3” value ([3]; replicate 3) was -3.46%. For the same compound, the “Inhibition 4” value ([3]; replicate 4) was -1.03%, the Mean % ([4]; mean inhibition) was 59.91% and the “Inhibition 1” value ([4]; replicate 1) was 71.52%. The “Inhibition 2” value ([4]; replicate 2) was 71.2%, the “Inhibition 3” value ([4]; replicate 3) was 51.64% and the “Inhibition 4” value ([4]; replicate 4) was 45.27%. The Mean % ([5]; mean inhibition) was -4.85%, the “Inhibition 1” value ([5]; replicate 1) was -1.18% and the “Inhibition 2” value ([5]; replicate 2) was -5.62%. The “Inhibition 3” value ([5]; replicate 3) was -5.04%, the “Inhibition 4” value ([5]; replicate 4) was -7.54% and the Mean % ([6]; mean inhibition) was -8.1%. The “Inhibition 1” value ([6]; replicate 1) was 3.44%, the “Inhibition 2” value ([6]; replicate 2) was -10.8% and the “Inhibition 3” value ([6]; replicate 3) was -1.96%. For the same compound, the “Inhibition 4” value ([6]; replicate 4) was -23.07%.
